≈ marks a conversion by molar mass, not a printed value. Where “and” joins values, the source holds several entries; their conditions need not be identical. Identical values can stand only once. Like-named read-outs stand apart in the source and are kept apart here.
Legend:
[1] = tested on: human non-small-cell lung cancer cell lines H460; test: SRB growth inhibition of lung cancer cells; assay type: cell-based; conditions: 48 hours, SRB
Protocol: (§1) After letting to stand for 10 minutes at room temperature, the supernatant of each well was removed, and each well was washed with 200 μL H2O once. […] Each of the plates was then placed in the laminar flow cabinet for 1 hour for air dry. 50 μL 0.4% sulforhodamine B (SRB) dye was added into each well of the 96-well plate. […] Each of the plates was then placed in the laminar flow cabinet for 40 minutes to 1 hour for air dry. 1×Tris-Base solution with pH 7.0 to 7.4 was added to each well of the 96-well plate to dissolve the protein complex formed in the bottom of each well, followed by tapping the 96-well plate, allowing the complex in each well to be dissolved uniformly. Absorption of each well under 515 nm was read. […] Each of the experimental group was performed in triplet.

[2] = first dissolution test in DMSO or water; conditions: for Total volume of DMSO for dissolving the p-TSA derivatives / Total volume of water for dissolving the p-TSA derivatives: first dissolution test, amount for a 3M solution in 0.5 mL, up to 15000 μL; for solubility: thermodynamic from solid
Protocol: Each of the powder of p-TSA derivatives was duplicated, placed in each 15 mL centrifuge tube, followed by adding 200 μL DMSO or 200 μL water and shaking for 10 to 20 seconds for dissolution observation. If the powder was not dissolved, additional DMSO or water was added, and then the mixture was shaken. The tube was left to stand for 10 minutes for observation if the powder was still not dissolved after adding 1 mL DMSO or 1 mL water. If the powder was still not dissolved after adding 5 mL DMSO or 5 mL water, additional 1 mL DMSO or 1 mL water was added, and then the mixture was shaken for 30 seconds. If the powder was still not dissolved after adding 10 mL DMSO or 10 mL water, the tube was left to stand for 12 to 16 hours and observed on the next day. DMSO or water was added into the tube having the undissolved p-TSA derivatives up to 15 mL, followed by shaking for 30 minutes for observation.

[3] = tested on: human liver cancer cell lines Hep3B; test: SRB growth inhibition of liver cancer cells; assay type: cell-based; conditions: 48 hours, SRB
Protocol: as §1

[4] = Homo sapiens, NCI-H460, 48 h, derivative dissolved in DMSO, read-out: IC50 of H460 in DMSO
[5] = Homo sapiens, Hep3B, 48 h, derivative dissolved in DMSO, read-out: IC50 of Hep3B in DMSO
[6] = derivative dissolved in DMSO, read-out: IC50 of H460 in DMSO
[7] = derivative dissolved in DMSO, read-out: IC50 of Hep3B in DMSO
[8] = Homo sapiens, NCI-H460, 48 h, derivative dissolved in water, read-out: IC50 of H460 in water
[9] = Homo sapiens, Hep3B, 48 h, derivative dissolved in water, read-out: IC50 of Hep3B in water
[10] = DMSO, organic solvent or mixture

Row | Compound | IC50 [1, 4] | Total volume of DMSO for dissolving the p-TSA derivatives ([2]; DMSO) | Total volume of water for dissolving the p-TSA derivatives ([2]; water) | IC50 [3, 5] | IC50 [1, 6] | IC50 [3, 7] | IC50 [1, 8] | IC50 [3, 9] | solubility [2, 10] | solubility ([2]; water) | Solubility in DMSO ([2]; DMSO) | Solubility in water ([2]; water)
1 | Cc1ccc(S(=O)(=O)NCC(O)CO)cc1 (centres unmarked) [PTSA028] | 5.53 mM | 620 µL | insoluble in 15000 μL | 5.36 mM | – | – | – | – | – | – | – | –
2 | CC(=O)NS(=O)(=O)c1ccc(C)cc1 [PTSA001] | – | 510 µL | insoluble in 15000 μL | – | 7.72 mM | > 9 mM | – | – | – | – | – | –
3 | Cc1ccc(S(=O)(=O)N2CC(CN)C2)cc1.Cl [PTSA068] | 1.27 mM | 4000 µL | 4500 µL | 1.25 mM | – | – | 1.39 mM | 1.3 mM | – | – | – | –
4 | Cc1ccc(S(=O)(=O)NC2COC2)cc1 [PTSA040] | 0.431 mM | 475 µL | insoluble in 15000 μL | 0.329 mM | 0.406 mM | 0.413 mM | – | – | 762 mg/mL (≈ 3350 mM) | < 50 mg/mL | – | –
5 | Cc1ccc(S(=O)(=O)NC(C)(CO)CO)cc1 [PTSA030] | 3.3 mM | 695 µL | insoluble in 15000 μL | 4.31 mM | – | – | – | – | – | – | – | –
6 | Cc1ccc(S(=O)(=O)NCC2(CO)COC2)cc1 [PTSA039] | 4.16 mM | 500 µL | insoluble in 15000 μL | 3.74 mM | – | – | – | – | – | – | – | –
7 | Cc1ccc(S(=O)(=O)N2CC(O)C2)cc1 [PTSA037] | 0.288 mM | 605 µL | insoluble in 15000 μL | 0.265 mM | 0.259 mM | 0.274 mM and 0.264 mM | – | – | 832 mg/mL (≈ 3660 mM) | < 50 mg/mL | – | –
8 | Cc1ccc(S(=O)(=O)N2CC(C#N)C2)cc1 [PTSA063] | 1.27 mM | 900 µL | insoluble in 15000 μL | 1.3 mM | – | – | – | – | – | – | – | –
9 | Cc1ccc(S(=O)(=O)NC(=O)NS(=O)(=O)c2ccc(C)cc2)cc1 [PTSA017] | > 3 mM | 2000 µL | insoluble in 15000 μL | > 3 mM | – | – | – | – | – | – | – | –
10 | Cc1ccc(S(=O)(=O)N2CC(=NO)C2)cc1 [PTSA070] | – | 850 µL | insoluble in 15000 μL | – | – | – | – | – | – | – | – | –
11 | CCOC(=O)NS(=O)(=O)c1ccc(C)cc1 [PTSA014] | 5.82 mM | 610 µL | insoluble in 15000 μL | 4.59 mM | – | – | – | – | – | – | – | –
12 | Cc1ccc(S(=O)(=O)N2CC(N)C2)cc1.Cl [PTSA074] | > 1.8 mM | 2500 µL | 10000 µL | > 1.8 mM | – | – | 2.22 mM | 2.13 mM | – | – | – | –
13 | Cc1ccc(S(=O)(=O)N2CCCC2CO)cc1 (centres unmarked) [PTSA034] | 1.5 mM | 505 µL | insoluble in 15000 μL | 1.78 mM | – | – | – | – | – | – | – | –
14 | Cc1ccc(S(=O)(=O)N2CCC(CN)CC2)cc1.Cl [PTSA055] | 0.617 mM | 2000 µL | 3000 µL | 0.596 mM | – | – | 0.651 mM | 0.61 mM | 229 mg/mL | 152 mg/mL | – | –
15 | Cc1ccc(S(=O)(=O)NCC2CCNCC2)cc1.Cl [PTSA054] | 1.17 mM | 740 µL | insoluble in 15000 μL | 0.935 mM | – | – | – | – | – | – | – | –
16 | Cc1ccc(S(=O)(=O)N2CC(C(=O)NN)C2)cc1 [PTSA071] | 1.04 mM | 1500 µL | insoluble in 15000 μL | 1.02 mM | – | – | – | – | – | – | – | –
17 | Cc1ccc(S(=O)(=O)NCCCO)cc1 [PTSA021] | 2.45 mM | 495 µL | insoluble in 15000 μL | 2.81 mM | – | – | – | – | – | – | – | –
18 | COCCNS(=O)(=O)c1ccc(C)cc1 [PTSA042] | 2.49 mM | 475 µL | insoluble in 15000 μL | 2.75 mM | – | – | – | – | – | – | – | –
19 | Cc1ccc(S(=O)(=O)N2CC(F)(F)C2)cc1 [PTSA064] | > 0.713 mM | 750 µL | insoluble in 15000 μL | > 0.713 mM | – | – | – | – | – | – | – | –
20 | Cc1ccc(S(N)(=O)=O)cc1 [p-TSA, Toluene sulfonamide, reference compound] | – | – | – | – | 3.72 ± 0.146 mM | 3.73 ± 0.274 mM | – | – | – | – | 785.95 mg/mL (≈ 4590 mM) | <50 mg/mL
21 | Cc1ccc(S(=O)(=O)NC[C@@H](O)CO)cc1 [PTSA027] | 5.35 mM | 575 µL | insoluble in 15000 μL | 4.1 mM | – | – | – | – | – | – | – | –
22 | Cc1ccc(S(=O)(=O)N2CC(=O)C2)cc1 [PTSA066] | 0.906 mM | 3000 µL | insoluble in 15000 μL | 0.733 mM | – | – | – | – | – | – | – | –
23 | Cc1ccc(S(=O)(=O)N2CC(C(N)=O)C2)cc1 [PTSA062] | > 2.25 mM | 3000 µL | insoluble in 15000 μL | > 2.25 mM | – | – | – | – | – | – | – | –
24 | Cc1ccc(S(=O)(=O)NCCN(C)C)cc1.Cl [PTSA051] | 1.82 mM | 1500 µL | 1000 µL | 1.41 mM | – | – | 1.75 mM | 1.44 mM | – | – | – | –
25 | Cc1ccc(S(=O)(=O)NC(CO)(CO)CO)cc1 [PTSA031] | 3.31 mM | 700 µL | 10000 µL | 4.21 mM | – | – | > 1 mM | > 1 mM | – | – | – | –
26 | COC(=O)NS(=O)(=O)c1ccc(C)cc1 [PTSA012] | – | 680 µL | 500 µL | – | 6.11 mM | 7.5 mM | > 5 mM | – | – | – | – | –
27 | Cc1ccc(S(=O)(=O)NCC(F)(F)F)cc1 [PTSA050] | – | 590 µL | insoluble in 15000 μL | – | – | – | – | – | – | – | – | –

Source: patent US10485773B2, “Benzenesulfonamide derivatives and method for treating cancer” (GONGWIN BIOPHARM HOLDINGS CO., LTD., priority 2016, dated 2019)
